Experimental data published in US6685617B1, “Inhibitors of α4β1 mediated cell adhesion” (Pharmacia & Upjohn Company, priority 1998, dated 2004).
Structures can show the parent of a compound that is named as a salt.

Key:
[1] = molecular target: T1, α4β1 integrin (Jurkat cell adhesion to immobilized CS-1 derived peptide CLHPGEILDVPST) (Homo sapiens, UniProt P05556+P13612); test: Jurkat-CS-1 assay; format: cell-based; settings: Jurkat cells on CS-1 peptide coated plates; read-out: JK/CS-1 (Jurkat CS-1 Assay IC50 value range)
T1 construct: 100 μl of Jurkat cells (2.5×10^6 cells/ml) in DMEM plus BSA; host or cells: Jurkat T-cell line
T1 sequence (P13612 34-1032): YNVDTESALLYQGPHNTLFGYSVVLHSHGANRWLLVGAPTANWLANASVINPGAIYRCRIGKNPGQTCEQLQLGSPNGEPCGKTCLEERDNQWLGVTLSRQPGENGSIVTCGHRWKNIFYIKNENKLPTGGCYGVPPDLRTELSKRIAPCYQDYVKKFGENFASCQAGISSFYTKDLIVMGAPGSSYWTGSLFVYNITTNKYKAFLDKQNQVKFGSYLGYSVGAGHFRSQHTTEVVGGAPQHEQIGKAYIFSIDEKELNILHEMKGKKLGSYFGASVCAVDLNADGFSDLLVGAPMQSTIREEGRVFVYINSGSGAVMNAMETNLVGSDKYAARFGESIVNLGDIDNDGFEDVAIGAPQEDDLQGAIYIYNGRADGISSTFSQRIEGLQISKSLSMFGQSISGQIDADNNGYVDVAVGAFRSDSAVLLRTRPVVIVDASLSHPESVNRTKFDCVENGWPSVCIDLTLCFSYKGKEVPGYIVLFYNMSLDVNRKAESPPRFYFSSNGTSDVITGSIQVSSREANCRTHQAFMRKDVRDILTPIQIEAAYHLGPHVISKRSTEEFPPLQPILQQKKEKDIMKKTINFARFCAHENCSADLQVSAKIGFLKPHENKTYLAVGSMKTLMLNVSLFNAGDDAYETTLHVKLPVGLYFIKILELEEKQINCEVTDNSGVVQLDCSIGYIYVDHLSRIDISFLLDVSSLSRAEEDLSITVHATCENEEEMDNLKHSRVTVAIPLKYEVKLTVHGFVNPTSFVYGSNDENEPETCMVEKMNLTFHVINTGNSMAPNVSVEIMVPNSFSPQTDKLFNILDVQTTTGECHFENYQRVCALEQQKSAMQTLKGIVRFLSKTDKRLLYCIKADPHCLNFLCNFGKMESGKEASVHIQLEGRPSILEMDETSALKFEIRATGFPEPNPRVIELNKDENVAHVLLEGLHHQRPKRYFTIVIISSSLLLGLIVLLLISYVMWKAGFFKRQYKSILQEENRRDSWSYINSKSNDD
T1 sequence (P05556 21-798): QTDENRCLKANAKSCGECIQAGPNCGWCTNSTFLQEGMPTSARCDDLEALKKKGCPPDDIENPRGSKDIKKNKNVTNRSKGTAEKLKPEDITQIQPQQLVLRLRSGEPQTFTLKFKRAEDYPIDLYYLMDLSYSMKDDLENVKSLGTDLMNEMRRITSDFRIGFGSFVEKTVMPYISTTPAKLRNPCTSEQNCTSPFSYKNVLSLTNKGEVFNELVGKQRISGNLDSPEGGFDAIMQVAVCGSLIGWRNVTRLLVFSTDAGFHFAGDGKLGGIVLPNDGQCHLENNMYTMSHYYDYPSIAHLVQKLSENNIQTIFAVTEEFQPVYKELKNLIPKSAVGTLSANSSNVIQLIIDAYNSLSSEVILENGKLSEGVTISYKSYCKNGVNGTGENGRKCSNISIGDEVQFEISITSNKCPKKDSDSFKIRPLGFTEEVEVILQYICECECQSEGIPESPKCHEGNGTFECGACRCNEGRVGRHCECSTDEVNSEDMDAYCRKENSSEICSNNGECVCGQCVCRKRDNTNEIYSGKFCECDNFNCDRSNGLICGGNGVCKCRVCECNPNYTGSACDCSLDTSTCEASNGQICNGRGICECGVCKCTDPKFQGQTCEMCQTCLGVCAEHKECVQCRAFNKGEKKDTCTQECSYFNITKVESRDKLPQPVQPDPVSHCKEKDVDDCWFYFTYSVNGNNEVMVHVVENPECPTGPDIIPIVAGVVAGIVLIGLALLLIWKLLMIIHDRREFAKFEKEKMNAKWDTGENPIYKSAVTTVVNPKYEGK
Procedure, shortened: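 CS-1 peptide was SPDP-crosslinked onto HSA-coated plates and blocked with BSA. Jurkat cells (2.5×10^6 cells/ml) in DMEM/BSA were mixed with compound, generally at 100, 20, 5 and 1.25 μM, and allowed to adhere for 1 hr at 37° C. Bound cells were fixed, stained with toluidine blue and quantified by OD590.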

[2] = molecular target: T2, α4β1 integrin (Jurkat T-cell adhesion to IL-1 stimulated endothelial cell monolayers) (Homo sapiens, UniProt P05556+P13612); test: Jurkat-endothelial cell adhesion assay (Jurkat EC); format: cell-based; settings: Jurkat cells on IL-1 stimulated human umbilical vein endothelial cells; read-out: JK/EC (Jurkat EC Assay IC50 value range)
T2 construct: a T-cell line, Jurkat, known to express the α4β1 integrin; host or cells: Jurkat T-cell line
T2 sequence (P13612 34-1032): as the sequence (P13612 34-1032) above
T2 sequence (P05556 21-798): as the sequence (P05556 21-798) above
Procedure, shortened: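 Adhesion was expressed as percent of compound-free fluorescence after 20 min at 37° C (following 5 min settling on ice) of BCECF-loaded Jurkat T cells on washed HUVEC monolayers. The endothelium, passage 6 or lower, had received 0.1 ng/ml recombinant IL-1 for 4 hr at 37° C; compound was premixed with the T cells, typically at 100, 20, 5 and 1.25 μM.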

Compound `CC1(C)N[C@H](C(=O)N[C@@H](Cc2ccc(NC(=O)c3c(Cl)cccc3Cl)cc2)C(=O)O)CS1` [Example 74, 4-[(2,6-Dichlorobenzoyl)amino]-N-[[(4R)-2,2-dimethyl-4-thiazolidinyl]carbonyl]-L-phenylalanine] has an IC50 [1] of 50 to 750 nM and an IC50 [2] of 250 to 1000 nM.
In the case of `COC(=O)[C@H](Cc1ccc(NC(=O)c2c(Cl)cccc2Cl)cc1)NC(=O)[C@H]1CSC(C)(C)N1C(C)=O` [Example 83, N-[[(4S)-3-Acetyl-2,2-dimethyl-4-thiazolidinyl]carbonyl]-4-[(2,6-dichlorobenzoyl)amino]-L-phenylalanine Methyl Ester], the IC50 [1] is reported as 50 to 750 nM and the IC50 [2] is reported as at least 1000 nM.
For `CC(=O)N1[C@@H](C(=O)N[C@@H](Cc2ccc(NC(=O)c3c(Cl)cccc3Cl)cc2)C(=O)O)CSC1(C)C` [Example 84, N-[[(4S)-3-Acetyl-2,2-dimethyl-4-thiazolidinyl]carbonyl]-4-[(2,6-dichlorobenzoyl)amino]-L-phenylalanine], the IC50 [1] was at most 50 nM and the IC50 [2] was at most 250 nM.
Work on `COC(=O)[C@H](Cc1ccc(NC(=O)c2c(Cl)cccc2Cl)cc1)NC(=O)[C@@H]1N(C(C)=O)C(C)(C)SC1(C)C` [Example 87, N-[[(4S)-3-Acetyl-2,2,5,5-tetramethyl-4-thiazolidinyl]carbonyl]-4-[(2,6-dichlorobenzoyl)amino]-L-phenylalanine Methyl Ester] yielded an IC50 [1] of at least 750 nM and an IC50 [2] of at least 1000 nM.
`O=C(NO)[C@H](Cc1ccc(OCc2c(Cl)cccc2Cl)cc1)NC(=O)[C@H]1CSCN1C(=O)OCCN1CCOCC1` [Example 91] gave an IC50 [1] of at least 750 nM and an IC50 [2] of at least 1000 nM.
`CCOC(=O)N1CSC[C@@H]1C(=O)N[C@@H](Cc1ccc(OCc2c(Cl)cccc2Cl)cc1)C(=O)NO` [Example 92] was tested, and the IC50 [1] was at least 750 nM and the IC50 [2] was at least 1000 nM.
Work on `O=C(NO)[C@H](Cc1ccc(OCc2c(Cl)cccc2Cl)cc1)NC(=O)[C@H]1CSCN1C(=O)OCCN1CCCCC1` [Example 93] yielded an IC50 [1] of at least 750 nM and an IC50 [2] of at least 1000 nM.
Work on `COC(=O)[C@H](Cc1ccc(NC(=O)c2c(Cl)cccc2Cl)cc1)NC(=O)[C@@H]1CSCCN1C(=O)OC(C)(C)C` [Example 96] yielded an IC50 [1] of at least 750 nM and an IC50 [2] of at least 1000 nM.
`COC(=O)[C@H](Cc1ccc(NC(=O)c2c(Cl)cccc2Cl)cc1)NC(=O)[C@@H]1CSCCN1` [Example 97] was tested, and the IC50 [1] was at least 750 nM and the IC50 [2] was at least 1000 nM.
`O=C(Nc1ccc(C[C@H](NC(=O)[C@@H]2CSCCN2)C(=O)O)cc1)c1c(Cl)cccc1Cl` [Example 101, 4-[(2,6-Dichlorobenzoyl)amino]-N-[[(3R)-3-thiomorpholinyl]carbonyl]-L-phenylalanine Monohydrochloride] showed an IC50 [1] of 50 to 750 nM and an IC50 [2] of 250 to 1000 nM.
In the case of `COC(=O)[C@H](Cc1ccc(NC(=O)c2c(Cl)cccc2Cl)cc1)NC(=O)[C@@H]1CSCCN1C(=O)CCc1nnn[nH]1` [Example 102, 4-[(2,6-Dichlorobenzoyl)amino]-N-[[(3R)-4-[1-oxo-3-(1H-tetrazol-5-yl)propyl]-3-thiomorpholinyl]carbonyl]-L-phenylalanine Methyl Ester], the IC50 [1] is reported as at least 750 nM and the IC50 [2] is reported as at least 1000 nM.
`O=C(Nc1ccc(C[C@H](NC(=O)[C@@H]2CSCCN2C(=O)CCc2nnn[nH]2)C(=O)O)cc1)c1c(Cl)cccc1Cl` [Example 103, 4-[(2,6-Dichlorobenzoyl)amino]-N-[[(3R)-4-[1-oxo-3-(1H-tetrazol-5-yl)propyl]-3-thiomorpholinyl]-carbonyl]-L-phenylalanine] was tested, and the IC50 [1] was at most 50 nM and the IC50 [2] was 250 to 1000 nM.
In the case of `N#CCCC(=O)N1CCSC[C@H]1C(=O)N[C@@H](Cc1ccc(NC(=O)c2c(Cl)cccc2Cl)cc1)C(=O)O` [Example 104, N-[[(3R)-4-(3-Cyano-1-oxopropyl)-3-thiomorpholinyl]carbonyl]-4-[[2,6-dichlorobenzoyl)amino]-L-phenylalanine], the IC50 [1] is reported as 50 to 750 nM and the IC50 [2] is reported as at least 1000 nM.
Work on `CN1C(=O)CCC1(CCC(=O)O)CCC(=O)N[C@@H](Cc1ccc(OCc2c(Cl)cccc2Cl)cc1)C(=O)O` (stereo partly drawn) [Example 107, 2-[3-[[(1S)-1-Carboxy-2-[4-[(2,6-dichlorophenyl)methoxy]phenyl]ethyl]amino]-3-oxo-propyl]-1-methyl-5-oxo-2-pyrrolidinepropanoic Acid] yielded an IC50 [1] of 50 to 750 nM and an IC50 [2] of at least 1000 nM.
`CC(C)=CCN1C(=O)CCC1(CCC(=O)O)CCC(=O)N[C@@H](Cc1ccc(OCc2c(Cl)cccc2Cl)cc1)C(=O)O` (stereo partly drawn) [Example 109, 2-[3-[[(1S)-1-Carboxy-2-[4-[(2,6-dichlorophenyl)methoxy]phenyl]ethyl]amino]-3-oxo-propyl]-1-(3-methyl-2-butenyl)-5-oxo-2-pyrrolidinepropanoic Acid] gave an IC50 [1] of at least 750 nM and an IC50 [2] of at least 1000 nM.
Work on `CN1C(=O)CCC1(CCC(=O)O)CCC(=O)N[C@@H](Cc1ccc(NC(=O)c2c(Cl)cccc2Cl)cc1)C(=O)O` (stereo partly drawn) [Example 111, 2-[3-[[(1S)-1-Carboxy-2-[4-[(2,6-dichlorobenzoyl)amino]phenyl]ethyl]amino]-3-oxo-propyl]-1-methyl-5-oxo-2-pyrrolidinepropanoic Acid] yielded an IC50 [1] of 50 to 750 nM and an IC50 [2] of 250 to 1000 nM.
`O=C(O)CCC1(CCC(=O)N[C@@H](Cc2ccc(OCc3c(Cl)cccc3Cl)cc2)C(=O)O)CCC(=O)N1` (stereo partly drawn) [Example 113, 2-[3-[[(1S)-1-Carboxy-2-[4-[(2,6-dichlorophenyl)methoxy]phenyl]ethyl]amino]-3-oxo-propyl]-5-oxo-2-pyrrolidinepropanoic Acid] gave an IC50 [1] of 50 to 750 nM and an IC50 [2] of at least 1000 nM.
`COC(=O)CCC1(CCC(=O)N[C@@H](Cc2ccc(NC(=O)c3c(Cl)cccc3Cl)cc2)C(=O)OC)CCC(=O)N1` (stereo partly drawn) [Example 114, 2-[3-[[(1S)-1-[[4-[(2,6-Dichlorobenzoyl)amino]phenyl]methyl]-2-methoxy-2-oxoethyl]amino]-3-oxopropyl]-5-oxo-2-pyrrolidinepropanoic Acid Methyl Ester] was tested, and the IC50 [1] was at least 750 nM and the IC50 [2] was at least 1000 nM.
Work on `O=C(O)CCC1(CCC(=O)N[C@@H](Cc2ccc(NC(=O)c3c(Cl)cccc3Cl)cc2)C(=O)O)CCC(=O)N1` (stereo partly drawn) [Example 115] yielded an IC50 [1] of 50 to 750 nM and an IC50 [2] of at least 1000 nM.
With `COC(=O)[C@H](Cc1ccc(OCc2c(Cl)cccc2Cl)cc1)NC(=O)CCC1(C(=O)O)CCC(=O)N1` (stereo partly drawn) [Example 116, 2-[3-[[(1S)-1-[[4-[(2,6-Dichlorophenyl)methoxy]phenyl]methyl]-2-methoxy-2-oxoethyl]amino]-3-oxopropyl]-5-oxoproline] the IC50 [1] was at least 750 nM and the IC50 [2] was at least 1000 nM.
`O=C(CCC1(C(=O)O)CCC(=O)N1)N[C@@H](Cc1ccc(OCc2c(Cl)cccc2Cl)cc1)C(=O)O` (stereo partly drawn) [Example 117, 2-[3-[[(1S)-1-Carboxy-2-[4-[(2,6-dichlorophenyl)methoxy]phenyl]ethyl]amino]-3-oxo-propyl]-5-oxoproline] showed an IC50 [1] of 50 to 750 nM and an IC50 [2] of at least 1000 nM.
`CC(C)(C)OC(=O)N1CSC[C@@H]1C(=O)N[C@@H](Cc1ccc(OCc2c(Cl)cccc2Cl)c(Cl)n1)C(=O)O` [Example 119, [S-(R*,R*)]-4-[[1-Carboxy-2-[[2-Chloro-3-[(2,6-dichlorophenyl)methoxy]-6-pyridyl]ethyl]amino]carbonyl]-3-thiazolidinecarboxylic Acid (1,1-Dimethylethyl)ester] was tested, and the IC50 [1] was at least 750 nM and the IC50 [2] was at least 1000 nM.
`CC(C)(C)OC(=O)N1CSCC1C(=O)NC(Cc1ccc(OCc2c(Cl)cccc2Cl)cn1)C(=O)O` (stereo not drawn) [Example 121, [S-(R*,R*)]-4-[[[1-Carboxy-2-[3-[(2,6-dihlorophenyl)methoxy]-6-pyridyl]ethyl]amino]carbonyl]-3-thiazolidinecarboxylic Acid (1,1-Dimethylethyl)ester] was tested, and the IC50 [1] was 50 to 750 nM and the IC50 [2] was at least 1000 nM.
With `CC(C)(C)OC(=O)N1CSC[C@@H]1C(=O)N[C@@H](Cc1ccc(N(C(=O)c2c(Cl)cccc2Cl)C(=O)c2c(Cl)cccc2Cl)nc1)C(=O)O` [Example 123, [S-(R*,R*)]-4-[[[[1-Carboxy-2-[2-[[bis-(2,6-dichlorobenzoyl)]amino]-5-pyridyl]]ethyl]amino]carbonyl]-3-thiazolidinecarboxylic Acid (1,1-Dimethylethyl)ester] the IC50 [1] was at least 750 nM and the IC50 [2] was at least 1000 nM.
`COC(=O)[C@H](Cc1ccc(NC(=O)c2c(Cl)cccc2Cl)cc1)NC(=O)[C@@H]1COCN1C(=O)OCc1ccccc1` [Example 124, [S-(R*,R*)]-4-[[[1-[[4-[(2,6-Dichlorobenzoyl)amino]phenyl]methyl]-2-methoxy-2-oxoethyl]amino]carbonyl]-3-oxazolidinecarboxylic Acid 3-Phenylmethyl Ester] showed an IC50 [1] of at least 750 nM and an IC50 [2] of at least 1000 nM.
Compound `O=C(Nc1ccc(C[C@H](NC(=O)[C@@H]2COCN2C(=O)OCc2ccccc2)C(=O)O)cc1)c1c(Cl)cccc1Cl` [Example 125, [S-(R*,R*)]-4-[[[1-Carboxy-2-[4-[(2,6-dichlorobenzoyl)amino]phenyl]ethyl]amino]-carbonyl]-3-oxazolidinecarboxylic Acid 3-Phenylmethyl Ester] has an IC50 [1] of 50 to 750 nM and an IC50 [2] of 250 to 1000 nM.
For `COC(=O)[C@H](Cc1ccc(NC(=O)c2c(Cl)cccc2Cl)cc1)NC(=O)[C@H]1COCN1C(=O)OCc1ccccc1` [Example 126, [R-(R*S*)]-4-[[[1-[[4-[(2,6-Dichlorobenzoyl)amino]phenyl]methyl]-2-methoxy-2-oxoethyl]amino]carbonyl]-3-oxazolidinecarboxylic Acid 3-Phenylmethyl Ester], the IC50 [1] was at least 750 nM and the IC50 [2] was at least 1000 nM.
